Source: US12110286B2, “Benzimidazolone derived inhibitors of BCL6” (Cancer Research Technology Limited, priority 2017, dated 2024)

Target: Trx-6×His-BCL6 (human BCL6 BTB domain covering amino-acid sequence 5-129) (Homo sapiens (Human), UniProt P41182)
Test: HTRF in vitro assay (BCL6 / BCOR-AF633 peptide)
Assay type: binding
Procedure: The % inhibition at each concentration was calculated by normalising FRET ratio to the appropriate high (DMSO with all reagents) and low (DMSO without BCL6) controls.

[1] = initially generated data, 10 nM Trx-6×His-BCL6, 300 nM BCOR-AF633 peptide, 1 nM anti-6×His-Terbium cryptate
[2] = further generated data, 1 nM Trx-6×His-BCL6, 300 nM BCOR-AF633 peptide, 0.5 nM anti-6×His-Terbium cryptate

C#CCCNC(=O)c1cc(Nc2ccc3c(c2)n(CCC(C)C(=O)OC)c(=O)n3C)c(C#N)c(Cl)n1 (centres unmarked) [Example 7b, Methyl 4-[6-[[6-(but-3-ynylcarbamoyl)-2-chloro-3-cyano-4-pyridyl]amino]-3-methyl-2-oxo-benzimidazol-1-yl]-2-methyl-butanoate]
HTRF pIC50 [1]: 5.84

COC(=O)C(C)CCn1c(=O)n(C)c2ccc(Nc3cc(C(=O)N(C)C)nc(Cl)c3C#N)cc21 (centres unmarked) [Example 7c, Methyl 4-[6-[[2-chloro-3-cyano-6-(dimethylcarbamoyl)-4-pyridyl]amino]-3-methyl-2-oxo-benzimidazol-1-yl]-2-methyl-butanoate]
HTRF pIC50 [1]: 5.57

CN(C)CCNC(=O)c1cc(Nc2ccc3c(c2)n(C)c(=O)n3C)c(C#N)c(Cl)n1 [Example 7d, 6-Chloro-5-cyano-N-[2-(dimethylamino)ethyl]-4-[(1,3-dimethyl-2-oxo-benzimidazol-5-yl)amino]pyridine-2-carboxamide:formic acid (1:1)]
HTRF pIC50 [1]: 5.50

CCOC(=O)c1cc(Nc2ccc3c(c2)n(CCC(C)C(=O)OC)c(=O)n3C)n2nccc2n1 (centres unmarked) [Example 8, Ethyl 7-[[3-(4-methoxy-3-methyl-4-oxo-butyl)-1-methyl-2-oxo-benzimidazol-5-yl]amino]pyrazolo[1,5-a]pyrimidine-5-carboxylate]
HTRF pIC50 [2]: 6.01
HTRF pIC50 [1]: 5.83

COC(=O)C(O)CCn1c(=O)n(C)c2ccc(Nc3ccnc(Cl)c3C#N)cc21 (centres unmarked) [Example 9, Methyl 4-[6-[(2-chloro-3-cyano-4-pyridyl)amino]-3-methyl-2-oxo-benzimidazol-1-yl]-2-hydroxy-butanoate]
HTRF pIC50 [2]: 5.97
HTRF pIC50 [1]: 5.83

Cn1c(=O)n(CC(O)C(C)(C)O)c2cc(Nc3ccnc(Cl)c3C#N)ccc21 (centres unmarked) [Example 10a, 2-Chloro-4-[[3-(2,3-dihydroxy-3-methyl-butyl)-1-methyl-2-oxo-benzimidazol-5-yl]amino]pyridine-3-carbonitrile]
HTRF pIC50 [2]: 5.93
HTRF pIC50 [1]: 5.81

COC(=O)C(CCn1c(=O)n(C)c2ccc(Nc3ccnc(Cl)c3C#N)cc21)OC (centres unmarked) [Example 10b]
HTRF pIC50 [2]: 5.57
HTRF pIC50 [1]: 5.71

CCOC(CCn1c(=O)n(C)c2ccc(Nc3ccnc(Cl)c3C#N)cc21)C(=O)OC (centres unmarked) [Example 10c]
HTRF pIC50 [2]: 5.69
HTRF pIC50 [1]: 5.65

COC(=O)CCCn1c(=O)n(C)c2ccc(Nc3ccnc(Cl)c3C#N)cc21 [Example 10d]
HTRF pIC50 [2]: 5.29
HTRF pIC50 [1]: 5.55

COC(=O)C(CCn1c(=O)n(C)c2ccc(Nc3ccnc(Cl)c3C#N)cc21)OCC1CC1 (centres unmarked) [Example 10e]
HTRF pIC50 [2]: 5.38
HTRF pIC50 [1]: 5.52

Cn1c(=O)n(CC(O)Cn2cccn2)c2cc(Nc3ccnc(Cl)c3C#N)ccc21 (centres unmarked) [Example 10f]
HTRF pIC50 [2]: 5.48
HTRF pIC50 [1]: 5.49

COC(=O)C1CCCC1Cn1c(=O)n(C)c2ccc(Nc3ccnc(Cl)c3C#N)cc21 (centres unmarked) [Example 11, Methyl 2-[[6-[(2-chloro-3-cyano-4-pyridyl)amino]-3-methyl-2-oxo-benzimidazol-1-yl]methyl]cyclopentanecarboxylate]
HTRF pIC50 [2]: 5.72
HTRF pIC50 [1]: 5.71

COC(=O)[C@H](N)CCn1c(=O)n(C)c2ccc(Nc3ccnc(Cl)c3C#N)cc21 [Example 12, Methyl (2R)-2-amino-4-[6-[(2-chloro-3-cyano-4-pyridyl)amino]-3-methyl-2-oxo-benzimidazol-1-yl]butanoate]
HTRF pIC50 [2]: 5.68
HTRF pIC50 [1]: 5.79

CC(=O)NC(C)CCn1c(=O)n(C)c2ccc(Nc3ccnc(Cl)c3C#N)cc21 (centres unmarked) [Example 13, N-[3-[6-[(2-Chloro-3-cyano-4-pyridyl)amino]-3-methyl-2-oxo-benzimidazol-1-yl]-1-methyl-propyl]acetamide]
HTRF pIC50 [1]: 5.75

CCNC(=O)c1cc(Nc2ccc3c(c2)n(CCC(C)(C)O)c(=O)n3C)c(Cl)cn1 [Example 14, 5-Chloro-N-ethyl-4-[[3-(3-hydroxy-3-methyl-butyl)-1-methyl-2-oxo-benzimidazol-5-yl]amino]pyridine-2-carboxamide]
HTRF pIC50 [2]: 6.29
HTRF pIC50 [1]: 6.05
